Columns and labels:
[1] = target: Flt3(h) (Homo sapiens, UniProt P36888); test: Protein kinase inhibition assay; assay type: biochemical; settings: read-out: percent residual activity of Flt3(h)
Method: (§1) Certain compounds were tested for activity in protein kinase inhibition assays. All substrates were dissolved and diluted to working stocks in de-ionized water, apart from histone H1 (10× working stock in 20 mM MOPS pH 7.0), PDKtide (10× working stock in 50 mM Tris pH 7.0) ATF2 (which is typically stored at a 20× working stock in 50 mM Tris pH 7.5, 150 mM NaCl, 0.1 mM EGTA, 0.03% Brij-35, 50% glycerol, 1 mM benzamidine, 0.2 mM PMSF and 0.1% R-mercaptoethanol), KKLNRTLSFAEPG (SEQ ID NO:203) and RRRLSFAEPG (SEQ ID NO:204) (50 mM HEPES pH 7.4) and GGEEEEYFELVKKKK (SEQ ID NO:205) (20 mM MOPS pH 7.0). All kinases were pre-diluted to a 10× working concentration prior to addition into the assay. The composition of the dilution buffer for each kinase is detailed below.
(§2) In a final reaction volume of 25 μl, Flt3 (h) (5-10 mU) is incubated with 8 mM MOPS pH 7.0, 0.2 mM EDTA, 50 μM EAIYAAPFAKKK (SEQ ID NO:206), 10 mM MgAcetate and [gamma-33P-ATP] (specific activity approx. 500 cpm/pmol, concentration as required). The reaction is initiated by the addition of the MgATP mix. After incubation for 40 minutes at room temperature, the reaction is stopped by the addition of 5 μl of a 3% phosphoric acid solution. 10 μl of the reaction is then spotted onto a P30 filtermat and washed three times for 5 minutes in 75 mM phosphoric acid and once in methanol prior to drying and scintillation counting.

[2] = tested on: c-myc mRNA in HCT116 cells; test: RNA Polymerase II-dependent RNA synthesis (c-myc mRNA, Taqman qRT-PCR); assay type: cell-based; settings: at the tested concentrations
Method: Effects of compound A-1 and compound B-1 on DNA synthesis, RNA synthesis and protein synthesis were determined in HCT116 cells. HCT116 cells were plated overnight at 100,000 cells per mL. Next day cells were treated with increasing amounts of either compound A-1 or compound B-1 followed by one hour incubation with BrdU label (from a BrdU Cell proliferation Assay Kit, Calbiochem) to monitor DNA synthesis; […] of ^3H-uridine to monitor total RNA synthesis; […] of ^3H-methionine to monitor protein synthesis or plain media to monitor RNA Polymerase II-dependent RNA synthesis. DNA synthesis was assessed using a BrdU-ELISA (BrdU Cell proliferation Assay Kit, Calbiochem). To measure total RNA synthesis, total RNA from treated cells was isolated with a RNease kit (QIAGEN), levels of total RNA were assessed with Ribogreen reagent (Invitrogen) and the newly synthesized tritiated RNA was measured in a scintillation Counter (Perkin Elmer). To measure effects on protein synthesis, cells were lysed in a RIPA buffer, and total protein was precipitated with 10% TCA on a glass-filters. Newly synthesized tritiated protein was measured in a scintillation Counter (Perkin Elmer). Effects of drugs on […] RNA synthesis were assessed by monitoring levels of a c-myc mRNA, which has a relatively short half-life of approximately 30 minutes, by Taqman qRT-PCR (ABI).

[3] = target: TAK1(h) (Homo sapiens, UniProt O43318); test: Protein kinase inhibition assay; assay type: biochemical; settings: read-out: percent residual activity of TAK1(h)
TAK1(h), sequence (O43318 1-303 limits assumed): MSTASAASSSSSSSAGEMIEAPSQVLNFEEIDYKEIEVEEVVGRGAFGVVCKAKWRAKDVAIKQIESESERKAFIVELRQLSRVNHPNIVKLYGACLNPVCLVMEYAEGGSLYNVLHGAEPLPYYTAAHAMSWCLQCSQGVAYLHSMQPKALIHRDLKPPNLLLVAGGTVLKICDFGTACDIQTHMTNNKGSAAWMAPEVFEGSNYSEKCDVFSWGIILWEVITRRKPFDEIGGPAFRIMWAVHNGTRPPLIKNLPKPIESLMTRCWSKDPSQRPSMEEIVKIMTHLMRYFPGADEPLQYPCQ
Method: as §1
as §2, with “TAK1” for “Flt3”, “2 mg/ml casein,” for “50 μM EAIYAAPFAKKK (SEQ ID NO:206),”

[4] = target: PKCθ(h) (Homo sapiens, UniProt Q04759); test: Protein kinase inhibition assay; assay type: biochemical; settings: read-out: percent residual activity of PKCθ(h)
PKCθ(h), sequence (Q04759 whole entry): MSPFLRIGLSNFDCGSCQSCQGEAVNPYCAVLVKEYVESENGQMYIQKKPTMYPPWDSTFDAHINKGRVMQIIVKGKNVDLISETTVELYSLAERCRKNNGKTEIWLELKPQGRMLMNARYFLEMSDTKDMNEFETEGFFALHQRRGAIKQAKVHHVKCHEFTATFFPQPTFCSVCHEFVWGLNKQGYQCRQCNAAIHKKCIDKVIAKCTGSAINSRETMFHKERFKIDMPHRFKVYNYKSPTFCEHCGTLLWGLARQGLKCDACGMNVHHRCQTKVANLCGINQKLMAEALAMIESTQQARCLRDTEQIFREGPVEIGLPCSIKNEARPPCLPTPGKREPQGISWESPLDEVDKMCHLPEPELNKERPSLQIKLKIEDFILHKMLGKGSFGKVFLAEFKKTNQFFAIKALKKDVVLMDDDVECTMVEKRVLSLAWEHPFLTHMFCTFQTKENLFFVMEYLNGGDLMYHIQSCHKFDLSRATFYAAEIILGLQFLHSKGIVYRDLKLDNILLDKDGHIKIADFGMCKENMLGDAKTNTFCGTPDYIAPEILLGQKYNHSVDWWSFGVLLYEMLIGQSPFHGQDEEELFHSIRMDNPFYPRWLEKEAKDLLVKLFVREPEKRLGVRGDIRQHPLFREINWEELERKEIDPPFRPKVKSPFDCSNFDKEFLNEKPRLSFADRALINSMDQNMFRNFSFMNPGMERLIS
Method: as §1
as §2, with “PKCθ” for “Flt3”, “0.1 mg/ml histone H1,” for “50 μM EAIYAAPFAKKK (SEQ ID NO:206),”

[5] = target: MEK1(h) (Homo sapiens, UniProt Q02750); test: Protein kinase inhibition assay; assay type: biochemical; settings: read-out: percent residual activity of MEK1(h)
MEK1(h), sequence (Q02750 whole entry): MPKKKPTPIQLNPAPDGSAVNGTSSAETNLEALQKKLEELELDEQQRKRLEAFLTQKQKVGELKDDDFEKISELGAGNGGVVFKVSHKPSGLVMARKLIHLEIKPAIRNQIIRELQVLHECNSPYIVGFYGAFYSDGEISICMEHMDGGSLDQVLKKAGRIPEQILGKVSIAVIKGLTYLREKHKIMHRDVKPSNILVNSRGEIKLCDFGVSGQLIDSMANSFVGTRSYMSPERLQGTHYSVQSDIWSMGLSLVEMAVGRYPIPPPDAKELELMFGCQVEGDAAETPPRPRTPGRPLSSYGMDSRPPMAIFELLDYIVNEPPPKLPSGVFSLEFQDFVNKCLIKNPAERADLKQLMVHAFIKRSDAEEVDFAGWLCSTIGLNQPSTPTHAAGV
Method: as §1
The reaction is initiated by the addition of the MgATP. After incubation for 40 minutes at room temperature, 5 μl of this incubation mix is used to initiate a MAPK2 (m) assay, which is described on page 12 of this book.

[6] = target: CHK1(h) (Homo sapiens, UniProt O14757); test: Protein kinase inhibition assay; assay type: biochemical; settings: read-out: percent residual activity of CHK1(h)
CHK1(h), sequence (O14757 whole entry): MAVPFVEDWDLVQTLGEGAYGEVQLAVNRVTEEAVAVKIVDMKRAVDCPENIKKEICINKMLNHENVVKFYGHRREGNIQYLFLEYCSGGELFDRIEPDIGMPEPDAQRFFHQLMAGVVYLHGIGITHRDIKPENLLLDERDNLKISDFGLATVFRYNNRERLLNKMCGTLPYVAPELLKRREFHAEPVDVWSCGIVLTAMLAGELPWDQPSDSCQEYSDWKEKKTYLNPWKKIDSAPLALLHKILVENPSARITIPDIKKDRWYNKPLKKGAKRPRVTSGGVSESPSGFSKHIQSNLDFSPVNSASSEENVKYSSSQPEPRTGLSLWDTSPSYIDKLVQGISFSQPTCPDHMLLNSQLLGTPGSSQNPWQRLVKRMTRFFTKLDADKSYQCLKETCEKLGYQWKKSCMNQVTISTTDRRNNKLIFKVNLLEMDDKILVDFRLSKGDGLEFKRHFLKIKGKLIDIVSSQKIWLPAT
Method: as §1
as §2, with “μl, CHK1” for “μl, Flt3”, “EDTA, 200” for “EDTA, 50”, “μM […]” for “μM EAIYAAPFAKKK”, “ID NO:213),” for “ID NO:206),”

Flt3(h), sequence (P36888 27-993): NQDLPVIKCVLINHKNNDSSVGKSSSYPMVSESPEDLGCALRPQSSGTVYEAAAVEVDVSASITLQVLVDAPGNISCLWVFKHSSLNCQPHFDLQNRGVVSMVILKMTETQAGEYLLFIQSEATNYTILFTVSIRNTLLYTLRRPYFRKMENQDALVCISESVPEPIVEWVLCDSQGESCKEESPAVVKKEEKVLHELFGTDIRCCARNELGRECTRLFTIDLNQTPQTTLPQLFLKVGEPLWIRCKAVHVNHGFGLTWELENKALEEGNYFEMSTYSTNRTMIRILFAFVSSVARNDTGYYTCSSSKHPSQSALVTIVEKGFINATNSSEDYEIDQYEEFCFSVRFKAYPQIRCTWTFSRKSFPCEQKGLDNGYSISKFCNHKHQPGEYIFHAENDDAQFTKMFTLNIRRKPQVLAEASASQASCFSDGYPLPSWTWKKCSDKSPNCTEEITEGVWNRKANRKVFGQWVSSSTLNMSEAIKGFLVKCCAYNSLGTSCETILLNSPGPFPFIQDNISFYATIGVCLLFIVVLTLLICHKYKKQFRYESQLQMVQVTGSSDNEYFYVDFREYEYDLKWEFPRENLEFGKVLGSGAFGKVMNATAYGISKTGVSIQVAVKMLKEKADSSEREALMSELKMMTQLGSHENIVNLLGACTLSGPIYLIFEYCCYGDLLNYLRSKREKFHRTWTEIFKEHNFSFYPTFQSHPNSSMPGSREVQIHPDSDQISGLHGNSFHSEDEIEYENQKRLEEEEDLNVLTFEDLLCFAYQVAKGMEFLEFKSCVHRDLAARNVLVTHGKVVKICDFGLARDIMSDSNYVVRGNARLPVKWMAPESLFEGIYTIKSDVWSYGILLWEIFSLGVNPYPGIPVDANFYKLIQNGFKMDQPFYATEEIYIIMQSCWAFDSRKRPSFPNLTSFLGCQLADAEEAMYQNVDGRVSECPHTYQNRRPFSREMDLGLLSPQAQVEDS

remaining activity at 2.5 µM [1] | remaining activity at 2.5 µM [3] | remaining activity at 2.5 µM [4] | remaining activity at 2.5 µM [5] | remaining activity at 2.5 µM [6] | SMILES | effect on c-myc mRNA levels [2]
32% | 98% | 91% | 87% | 95% | CN1CCCC1CCNC(=O)c1cn2c3c(c(N4CCC(c5cnccn5)C4)c(F)cc3c1=O)Oc1cc3ccccc3cc1-2 (stereo not drawn) [Compound A-1] | no measureable effect
100% | 95% | 108% | 90% | 106% | CC(=O)N1CCN(c2ccc3c(=O)c(C(=O)NCCN4CCCC4)c4n(C)c5ccccc5n4c3n2)CC1 [Compound B-1] | no measureable effect

From patent publication US20070117770A1, “Human ribosomal DNA (rDNA) and ribosomal RNA (rRNA) nucleic acids and uses thereof” (Cylene Pharmaceuticals, Inc., priority 2005, published 2007)
